Calls of active or inactive are those of the source. Rule as the data show it, for most assays here: actives have a measured EC50 and inactives only a lower limit.
Legend:
[1] = biological target: T1, Rac GTPase-activating protein 1 (Homo sapiens, UniProt Q9H0H5); test: MgcRacGAP GTPase-activating activity inhibitors, confirmation, biochemical, ADP Hunter fluorescence, primary and confirmatory (AID 624330); assay type: functional
T1 sequence (Q9H0H5 whole entry): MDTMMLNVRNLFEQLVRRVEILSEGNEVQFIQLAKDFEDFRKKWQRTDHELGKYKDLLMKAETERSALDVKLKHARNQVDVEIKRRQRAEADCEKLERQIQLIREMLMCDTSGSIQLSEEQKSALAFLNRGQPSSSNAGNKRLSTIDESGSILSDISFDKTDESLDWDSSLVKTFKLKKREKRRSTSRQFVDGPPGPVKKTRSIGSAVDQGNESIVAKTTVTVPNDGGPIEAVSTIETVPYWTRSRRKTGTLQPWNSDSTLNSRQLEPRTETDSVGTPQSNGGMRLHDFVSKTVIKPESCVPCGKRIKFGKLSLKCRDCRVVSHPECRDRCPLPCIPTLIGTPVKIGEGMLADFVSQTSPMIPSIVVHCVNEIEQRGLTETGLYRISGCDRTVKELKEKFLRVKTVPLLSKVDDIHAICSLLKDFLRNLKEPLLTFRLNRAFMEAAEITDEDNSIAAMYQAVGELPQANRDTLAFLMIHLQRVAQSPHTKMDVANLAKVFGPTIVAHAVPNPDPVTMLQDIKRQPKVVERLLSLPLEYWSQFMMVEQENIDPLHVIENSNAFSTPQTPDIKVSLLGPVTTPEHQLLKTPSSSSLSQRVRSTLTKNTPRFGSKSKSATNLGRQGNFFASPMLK

[2] = Luminescence Cell-Based Dose Response HTS to Identify Activators of Luciferase Translation or Activity in H4 […] Cells. [Related pubchem assays: 1829 (Project Summary), 1814 (Primary HTS)]; assay type: functional
[3] = test system: H4; test: Luminescence Cell-Based Dose Response HTS to Identify Activators of 5'UTR Stem-Loop Driven Prion Protein mRNA Translation in H4 Neuroglioblastoma Cells. [Related pubchem assays: 1829 (Project Summary), 1814 (Primary HTS)]; assay type: functional; details: Homo sapiens
[4] = biological target: T2, Heat shock factor protein 1 (Mus musculus, UniProt P38532); test: inhibition of MG132-induced HSE-luciferase signal, confirmation, cell-based, NIH3T3, luminescence, dose retest (AID 2382); assay type: functional;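 also: NIH3T3 fibroblasts with HSF1-driven luciferase reporter stressed by proteasome inhibitor MG132; luminescence from HSF1-driven luciferase expression after 8 hours of MG132 stress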
T2 sequence (P38532 whole entry): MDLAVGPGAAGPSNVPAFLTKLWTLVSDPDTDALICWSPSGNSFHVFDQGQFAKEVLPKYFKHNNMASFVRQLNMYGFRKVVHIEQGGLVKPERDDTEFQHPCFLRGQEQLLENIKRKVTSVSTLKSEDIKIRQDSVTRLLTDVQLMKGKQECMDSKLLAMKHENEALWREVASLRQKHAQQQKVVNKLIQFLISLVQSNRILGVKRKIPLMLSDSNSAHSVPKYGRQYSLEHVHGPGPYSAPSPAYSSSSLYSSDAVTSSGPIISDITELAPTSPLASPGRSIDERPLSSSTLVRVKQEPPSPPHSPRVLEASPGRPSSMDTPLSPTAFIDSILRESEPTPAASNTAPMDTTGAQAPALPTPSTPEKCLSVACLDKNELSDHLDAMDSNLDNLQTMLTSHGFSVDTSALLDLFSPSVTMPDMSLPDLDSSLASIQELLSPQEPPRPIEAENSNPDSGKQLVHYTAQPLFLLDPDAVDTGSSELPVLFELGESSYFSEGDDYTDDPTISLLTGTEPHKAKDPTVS

[5] = biological target: T3, Ubiquitin-conjugating enzyme E2 N (Homo sapiens, UniProt P61088); assay type: functional;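 also: Dose-response confirmation in a TR-FRET assay detecting UBC13-driven polyubiquitin chain formation, inhibition measured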
T3 sequence (P61088 whole entry): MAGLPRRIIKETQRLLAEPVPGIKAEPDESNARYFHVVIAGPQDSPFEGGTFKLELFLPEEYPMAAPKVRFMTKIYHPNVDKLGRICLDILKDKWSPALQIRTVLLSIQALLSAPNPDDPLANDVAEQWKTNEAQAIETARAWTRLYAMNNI

[6] = biological target: T2, Heat shock factor protein 1; test: HSF1 potentiators in luciferase reporter cells, confirmation, cell-based, NIH3T3, luminescence, dose retest (AID 435004); assay type: functional;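 also: stress induced by proteasome inhibitor MG132 added 30 min after compound; luciferase reporter driven by HSF1 response element in NIH3T3 cells; actives raise luminescence as potentiators of the MG132 stress response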
[7] = Luminescence Cell-Based Dose Retest to Confirm Inhibitors of Cancer Stem Cells. [Related pubchem assays (depositor defined):AID2717, AID2721]; assay type: functional; details: Homo sapiens
[8] = test system: INS1; test: beta cell apoptosis inhibitors, cytokine rescue, dose response, luminescence, retest (AID 449756); assay type: functional, cell-based; details: Rattus norvegicus;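 also: cell death triggered by IL-1 beta plus TNF-alpha plus IFN-gamma mixture; protective hits raise ATP signal compared with cytokine alone wells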
[9] = biological target: Paired box protein Pax-8 (Homo sapiens, UniProt Q06710); test: inhibitors of PAX8-driven TPO luciferase reporter, dose response, RMG-I cells, cherry-pick (AID 687027); assay type: functional, cell-based;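 also: luciferase reporter driven by Pax8 target thyroperoxidase promoter measured by SteadyGlo luminescence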
Chain of Paired box protein Pax-8 (Q06710 whole entry): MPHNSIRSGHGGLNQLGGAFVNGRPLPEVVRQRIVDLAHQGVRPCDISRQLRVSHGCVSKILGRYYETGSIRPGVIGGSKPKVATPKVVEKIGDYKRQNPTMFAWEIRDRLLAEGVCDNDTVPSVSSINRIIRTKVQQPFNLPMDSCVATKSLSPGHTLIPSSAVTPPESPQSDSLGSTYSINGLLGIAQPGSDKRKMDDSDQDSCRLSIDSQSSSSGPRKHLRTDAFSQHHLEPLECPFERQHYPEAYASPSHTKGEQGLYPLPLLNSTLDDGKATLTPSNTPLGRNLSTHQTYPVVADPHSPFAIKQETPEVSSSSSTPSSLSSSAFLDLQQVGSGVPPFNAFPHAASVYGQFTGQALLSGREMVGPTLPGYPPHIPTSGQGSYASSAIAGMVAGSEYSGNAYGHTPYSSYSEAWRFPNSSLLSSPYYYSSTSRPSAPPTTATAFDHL

[10] = test system: Streptococcus sp. 'group A'; test: growth inhibition of control SK(-) GAS strain, dose response, counter-screen for streptokinase expression inhibitor project, luminescence, kanamycin, BacTiterGlo, confirmation (AID 1900); assay type: functional, organism-based
[11] = biological target: T4, Streptokinase A (Streptococcus pyogenes serotype M1, UniProt P10520); test: S. pyogenes streptokinase expression inhibitors, potency, dose response, plasminogen activation absorbance, OD405 (AID 1914); assay type: functional, Streptococcus pyogenes M1 GAS;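 also: secreted streptokinase activity via plasminogen activation per viability signal from cell pellet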
T4 sequence (P10520 whole entry): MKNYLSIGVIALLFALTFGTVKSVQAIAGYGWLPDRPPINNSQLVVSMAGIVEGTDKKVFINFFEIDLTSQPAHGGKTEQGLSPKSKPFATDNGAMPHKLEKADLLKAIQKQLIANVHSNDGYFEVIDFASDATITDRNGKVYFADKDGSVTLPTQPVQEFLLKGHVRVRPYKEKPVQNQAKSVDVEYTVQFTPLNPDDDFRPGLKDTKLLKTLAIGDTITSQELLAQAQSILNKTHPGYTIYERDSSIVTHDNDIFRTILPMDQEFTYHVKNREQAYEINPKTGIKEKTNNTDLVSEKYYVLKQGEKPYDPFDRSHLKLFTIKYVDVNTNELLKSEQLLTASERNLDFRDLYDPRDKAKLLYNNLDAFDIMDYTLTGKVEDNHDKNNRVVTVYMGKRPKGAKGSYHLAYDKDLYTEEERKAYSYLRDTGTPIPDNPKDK

[12] = test system: Streptococcus; test: Group A Streptococcus viability loss, dose response, counter-screen for streptokinase expression inhibitor project, luminescence, BacTiterGlo (AID 1915); assay type: functional, organism-based;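 also: potency for reduction of bacterial viability or growth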
[13] = inhibitors of intracellular T. cruzi replication, confirmation, NIH3T3 host cells, beta-gal luminescence (AID 2044); assay type: functional, cell-based;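 also: intracellular parasites grown in NIH/3T3 mouse fibroblasts as host cells; luminescent beta-galactosidase reporter signal from transgenic T. cruzi replicating inside host cells; inhibitors lower the luminescence signal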
[14] = cytotoxicity toward NIH3T3 fibroblasts, dose response, counter-screen, cell-based, ATP luminescence, mouse fibroblasts (AID 2010); assay type: functional; details: NIH3T3;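 also: cells exposed to compound for about 90 hours before reading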
[15] = biological target: Cytochrome P450 3A4 (Homo sapiens, UniProt P08684);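 also: CYP3A4 tested as one member of a cytochrome P450 panel screen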
Chain of Cytochrome P450 3A4 (P08684 whole entry): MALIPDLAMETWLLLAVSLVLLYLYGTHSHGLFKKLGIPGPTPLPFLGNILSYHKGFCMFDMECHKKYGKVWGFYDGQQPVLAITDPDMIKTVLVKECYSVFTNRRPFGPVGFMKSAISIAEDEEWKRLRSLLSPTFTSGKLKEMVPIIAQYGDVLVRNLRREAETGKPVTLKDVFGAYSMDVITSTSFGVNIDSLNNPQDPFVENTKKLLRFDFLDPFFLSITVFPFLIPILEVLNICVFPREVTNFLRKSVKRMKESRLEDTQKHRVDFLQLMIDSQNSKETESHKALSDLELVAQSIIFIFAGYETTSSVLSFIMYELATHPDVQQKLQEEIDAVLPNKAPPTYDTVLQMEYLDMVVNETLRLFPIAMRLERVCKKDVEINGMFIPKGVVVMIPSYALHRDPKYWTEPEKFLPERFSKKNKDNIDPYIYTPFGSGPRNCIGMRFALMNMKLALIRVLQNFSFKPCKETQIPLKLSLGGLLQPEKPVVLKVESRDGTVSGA

## c1ccc(CN2CCN(CCOCCOc3ccc4c(c3)CCC4)CC2)cc1
[1]
  IC50: 53.6 µM (active)

## COc1ccc(C2Nc3ccccc3C(=O)N2c2ccc(C)cc2)cc1Cn1nnc2ccccc21 (stereo not given)
[2]
  EC50: 4.2 µM (active)
[3]
  EC50: 50.7 µM (active)

## Sc1nnc2ccccn12
[1]
  IC50: 34 µM (active)

## N#CC1=C(S)N(c2ccccc2)C(c2ccc(-c3cccc(Cl)c3)o2)NC1=O (stereo not given)
[1]
  IC50: 181 µM (active)

## COc1ccc(C(=O)c2c[nH]cc2-c2ccccc2)cc1
[4]
  EC50: > 195 µM (not active)

## COc1ccc(NC(=O)c2[nH]cnc2C(=O)NCc2ccccc2)cc1
[5]
  IC50: > 20 µM (inactive)

## Cc1nc(NC(C)c2ccccc2)sc1C(=O)Nc1ccccc1 (stereo not given)
[4]
  EC50: > 195 µM (not active)

## COCCCn1c(C(=O)NC2CCCCC2C)cc2c(=O)n3cccc(C)c3nc21 (stereo not given)
[6]
  EC50: > 260 µM (inactive)

## NN=C(S)Nc1ccccc1Cl
[4]
  EC50: > 195 µM (not active)

## COc1cc(OC)cc(-c2sc3ccc(OC)cc3c2-c2ccc(O)cc2)c1
[7]
  AC50: 2.46 µM (active)

## Cc1nc2ccc(S(=O)(=O)NC(C(=O)NCc3cccs3)C(C)C)cc2s1 (stereo not given)
[4]
  EC50: > 195 µM (not active)

## CCC(CC)c1nc(C#N)c(NCc2ccccc2)o1
[4]
  EC50: 107 µM (active)

## CCC1(c2ccccc2)NC(=O)N(CC(=O)NCc2ccccc2OC)C1=O (stereo not given)
[6]
  EC50: > 260 µM (inactive)

## CCOc1cc(/C=N/NC(=O)C(=O)N2CCCC2)ccc1O
[1]
  IC50: 56.3 µM (active)

## COc1cccc(-c2nn(-c3ccccc3)cc2C(=O)n2nnc3ccccc32)c1
[6]
  EC50: 4.15 µM (active)

## Cc1ccc(NC(=O)CN2CCN(C)CC2)cc1Br
[1]
  IC50: 98.5 µM (active)

## CCCCOC(=O)CCCc1ccc([N+](=O)[O-])cc1[N+](=O)[O-]
[6]
  EC50: > 260 µM (inactive)

## NC(=O)c1ccccc1OC1CCC1
[8]
  AC50: > 260 µM (inactive)

## CCOC(=O)N1CCc2c(sc(NC(=O)CN(CC)CC)c2C#N)C1
[5]
  IC50: > 20 µM (inactive)

## Cc1ccc(CSCC(=O)N(C)CC(=O)Nc2ccc(C)cc2)cc1
[4]
  EC50: > 195 µM (not active)

## O=C(N/N=C/c1ccc(O)cc1)c1[nH]c2ccc(Br)cc2c1-c1ccccc1
[4]
  EC50: 11.4 µM (active)
[9]
  AC50: 4.43 µM (active)

## COc1cccc(-c2nc(N3CCN(c4ccccc4)CC3)c3ccccc3n2)c1O
[6]
  EC50: > 260 µM (inactive)

## CCCCCCc1cc2cc(C(=O)Nc3ccccc3)c(=O)oc2cc1O
[7]
  AC50: 0.257 µM (active)
[8]
  AC50: 3.15 µM (active)

## CC1(C)CC2=Nc3cc4c(cc3C(c3ccc5c(c3)OCO5)C2=C(O)C1)OCO4 (stereo not given)
[6]
  EC50: 72 µM (active)

## COC(=O)c1cc(S(=O)(=O)NCc2ccc(F)cc2)cn1C
[4]
  EC50: > 195 µM (not active)

## CCCCCCCCCCS(=O)(=O)N/N=C/c1ccc([N+](=O)[O-])cc1
[7]
  AC50: 8.29 µM (active)

## O=C(CCC(=O)c1ccc(Br)cc1)Nc1cccnc1
[4]
  EC50: > 195 µM (not active)

## CCc1ccc(C2CC(c3cccc(Cl)c3)n3nc(N)nc3N2)cc1 (stereo not given)
[8]
  AC50: > 120 µM (inactive)

## O=C(N/N=C/c1cc(Br)c(O)c(Br)c1O)c1ccc2c(c1)OCCO2
[8]
  AC50: 3.1 µM (active)

## O=C(OCc1ccccc1F)c1ccc2c(c1)OCCO2
[2]
  EC50: 1.38 µM (active)
[3]
  EC50: 5.23 µM (active)

## Cc1noc(-c2ccc(C(F)(F)F)cc2)c1NC(=O)Nc1ccc(Cl)cc1
[8]
  AC50: 6.96 µM (active)

## Cc1c(C)n(Cc2ccccc2)c2ncnc(N)c12
[5]
  IC50: > 20 µM (inactive)

## Cc1cc(NC(=O)c2sc3ccccc3c2O)no1
[1]
  IC50: 75.2 µM (active)

## CCCSc1nsc(NC(=O)C(c2ccccc2)c2ccccc2)n1
[10]
  EC50: 2.73 µM (active)
[11]
  EC50: 11.3 µM (active)
[12]
  EC50: 6.12 µM (active)
[7]
  AC50: 2.87 µM (active)

## CCCNCC1C(Oc2ccc(Cl)cc2Cl)C(=O)N1c1cccc(C)c1C (stereo not given)
[13]
  EC50: 3.52 µM (active)
[14]
  EC50: > 60 µM (not active)
[7]
  AC50: 5.78 µM (active)

## COc1cc(/C=N/Nc2ccccn2)cc(OC)c1O
[1]
  IC50: 35 µM (active)

## O=C1CC(Nc2ccccc2)=NN1c1ccccc1
[7]
  AC50: 3.96 µM (active)
[15]
  AC50: 28.2 µM (inconclusive)

## COc1ccc(N2CCN(S(=O)(=O)c3cc4c(cc3C)N(C(C)=O)CCO4)CC2)cc1
[4]
  EC50: > 195 µM (not active)

## CSc1ccccc1NC(=O)CN(C)C(C)C(=O)NCc1ccc2c(c1)OCO2 (stereo not given)
[1]
  IC50: 46.7 µM (active)

## Cc1cc(C(=O)CSc2nnnn2C)c(C)n1Cc1ccco1
[2]
  EC50: 5.73 µM (active)
[3]
  EC50: > 120 µM (not active)

## COC(=O)[C@@H](Cc1ccccc1)N(Cc1ccccc1)S(=O)(=O)N(Cc1ccccc1)[C@H](Cc1ccccc1)C(=O)OC
[8]
  AC50: 3.91 µM (active)

## Cc1ccc(NC(=S)NNC(=O)c2nnn(-c3ccccc3)c2C)cc1
[5]
  IC50: > 20 µM (inactive)

## Cc1nn(Cc2ccc(Cl)cc2)c(C)c1NC(=O)c1cc(-c2ccc3c(c2)OCO3)on1
[13]
  EC50: 1.99 µM (active)
[14]
  EC50: 3.87 µM (active)
[7]
  AC50: 0.486 µM (active)

## CSCCC(NC(=O)c1ccccc1Br)C(=O)NNC(=O)c1csc(N2CCOCC2)n1 (stereo not given)
[5]
  IC50: > 20 µM (inactive)

## O=C(Nc1cccc(O)c1)c1cc(-c2ccccc2Cl)on1
[4]
  EC50: > 195 µM (not active)

## COc1ccc(Br)cc1CNC(=O)CCN1C(=O)COc2ccccc21
[4]
  EC50: > 195 µM (not active)

## CN(C(=O)CCNC(=O)Cn1cnc2ccccc2c1=O)c1ccccc1F
[4]
  EC50: > 195 µM (not active)
